Measured values published in ChEMBL document CHEMBL4765407, “Design, synthesis and high antitumor potential of new unsymmetrical bisacridine derivatives towards human solid tumors, specifically pancreatic cancers and their unique ability to stabilize DNA G-quadruplexes” (Eur J Med Chem, 2020).
pIC50: −log10 of the molar value.

Assays:
W256 [1] = assay: Antitumour activity against Walker 256 adenocarcinoma cells implanted in Wistar rat assessed as increase in animal survival rate by measuring T/C ratio at 1.25 mg/kg, ip qd for 3 days administered on day 3,4,5 after tumor cell transplantation; format: functional; conditions: time 3 day
MIA PaCa-2 [2] = assay: Cytotoxicity against human MIA PaCa-2 cells assessed as reduction in cell viability measured after 72 hrs by SRB assay; format: functional, cell-based; conditions: MIA PaCa-2, 72 h
DU-145 [3] = assay: Cytotoxicity against human DU-145 cells assessed as reduction in cell viability measured after 72 hrs by SRB assay; format: functional, cell-based; conditions: DU-145, 72 h
PANC-1 = assay: Cytotoxicity against human PANC-1 cells assessed as reduction in cell viability measured after 72 hrs by SRB assay; format: functional, cell-based; conditions: PANC-1, 72 h
MCF7 = assay: Cytotoxicity against human MCF7 cells assessed as reduction in cell viability measured after 72 hrs by SRB assay; format: functional, cell-based; conditions: MCF7, 72 h
NCI-H460 [4] = assay: Cytotoxicity against human NCI-H460 cells assessed as reduction in cell viability measured after 72 hrs by SRB assay; format: functional, cell-based; conditions: NCI-H460, 72 h
HCT-116 [5] = assay: Cytotoxicity against human HCT-116 cells assessed as reduction in cell viability measured after 72 hrs by SRB assay; format: functional, cell-based; conditions: HCT-116, 72 h
W256 [6] = assay: Antitumour activity against Walker 256 adenocarcinoma cells implanted in Wistar rat assessed as increase in animal survival rate by measuring T/C ratio at 4 mg/kg, ip qd for 3 days administered on day 3,4,5 after tumor cell transplantation; format: functional; conditions: time 3 day
MDA-MB-231 = assay: Cytotoxicity against human MDA-MB-231 cells assessed as reduction in cell viability measured after 72 hrs by SRB assay; format: functional, cell-based; conditions: MDA-MB-231, 72 h
Quadruplex DNA [7] = assay: Stabilization of 5'-FAM/3'-TAMRA labeled K-Ras G4 quadruplex DNA (unknown origin) assessed as change in melting temperature at 10 microM measured after 15 mins by FRET assay; format: nucleic-acid assay
HT-29 [8] = assay: Cytotoxicity against human HT-29 cells assessed as reduction in cell viability measured after 72 hrs by SRB assay; format: functional, cell-based; conditions: HT-29, 72 h
HT-29 [9] = assay: Antitumour activity against human HT-29 cells xenografted in Crl:Nu-Foxnl nu mouse assessed as inhibition of tumour growth at total effective dose of 24 mg/kg, iv measured on day 21; format: functional; conditions: HT-29, iv, 504 h, time 21 day, read-out: TGI
Quadruplex DNA [10] = assay: Stabilization of 5'-FAM/3'-TAMRA labeled c-Myc promoter G4 quadruplex DNA FPu18 (unknown origin) assessed as change in melting temperature at 10 microM measured after 15 mins by FRET assay; format: nucleic-acid assay
PC-3 = assay: Cytotoxicity against human PC-3 cells assessed as reduction in cell viability measured after 72 hrs by SRB assay; format: functional, cell-based; conditions: PC-3, 72 h
Quadruplex DNA [11] = assay: Stabilization of 5'-FAM/3'-TAMRA labeled telomeric G4 quadruplex DNA F21T (unknown origin) assessed as change in melting temperature at 10 microM measured after 15 mins by FRET assay; format: nucleic-acid assay
LNCaP = assay: Cytotoxicity against human LNCaP cells assessed as reduction in cell viability measured after 72 hrs by SRB assay; format: functional, cell-based
ASPC1 = assay: Cytotoxicity against human ASPC1 cells assessed as reduction in cell viability measured after 72 hrs by SRB assay; format: functional, cell-based; conditions: ASPC1, 72 h
NCI-H460 [12] = assay: Antitumour activity against human NCI-H460 cells xenografted in Crl:Nu-Foxnl nu mouse assessed as inhibition of tumour growth at total effective dose of 30 mg/kg, iv measured on day 14; format: functional; conditions: 336 h, time 14 day, read-out: TGI
[13] = Stabilization of ds 5'-FAM-d(TATAGCTATA-HEG-TATAGCTATA)-TAMRA-3' (unknown origin) assessed as change in melting temperature at 10 microM measured after 15 mins by FRET assay; conditions: Homo sapiens
HT-29 [14] = assay: Antitumour activity against human HT-29 cells xenografted in Crl:Nu-Foxnl nu mouse assessed as inhibition of tumour growth at total effective dose of 24 mg/kg, ip measured on day 21; format: functional; conditions: HT-29, ip, 504 h, time 21 day, read-out: TGI
UMUC3 = assay: Cytotoxicity against human UMUC3 cells assessed as reduction in cell viability measured after 72 hrs by SRB assay; format: functional, cell-based; conditions: UMUC3, 72 h
W256 [15] = assay: Antitumour activity against Walker 256 adenocarcinoma cells implanted in Wistar rat assessed as increase in animal survival rate by measuring T/C ratio at 5 mg/kg, ip qd for 3 days administered on day 3,4,5 after tumor cell transplantation; format: functional; conditions: time 3 day
W256 [16] = assay: Antitumour activity against Walker 256 adenocarcinoma cells implanted in Wistar rat assessed as increase in animal survival rate by measuring T/C ratio at 20 mg/kg, ip qd for 3 days administered on day 3,4,5 after tumor cell transplantation; format: functional; conditions: time 3 day
W256 [17] = assay: Antitumour activity against Walker 256 adenocarcinoma cells implanted in Wistar rat assessed as increase in animal survival rate by measuring T/C ratio at 10 mg/kg, ip qd for 3 days administered on day 3,4,5 after tumor cell transplantation; format: functional; conditions: time 3 day
W256 [18] = assay: Antitumour activity against Walker 256 adenocarcinoma cells implanted in Wistar rat assessed as increase in animal survival rate by measuring T/C ratio at 40 mg/kg, ip qd for 3 days administered on day 3,4,5 after tumor cell transplantation; format: functional; conditions: time 3 day
DU-145 [19] = assay: Antitumour activity against human DU-145 cells xenografted in Crl:Nu-Foxnl nu mouse assessed as inhibition of tumour growth at total effective dose of 6 mg/kg, ip measured on day 35; format: functional; conditions: DU-145, ip, 840 h, time 35 day, read-out: TGI
MIA PaCa-2 [20] = assay: Antitumour activity against human MIA PaCa-2 cells xenografted in Crl:Nu-Foxnl nu mouse assessed as inhibition of tumour growth at total effective dose of 32 mg/kg, iv measured on day 26; format: functional; conditions: MIA PaCa-2, iv, 624 h, time 26 day, read-out: TGI
W256 [21] = assay: Antitumour activity against Walker 256 adenocarcinoma cells implanted in Wistar rat assessed as increase in animal survival rate by measuring T/C ratio at 1 mg/kg, ip qd for 3 days administered on day 3,4,5 after tumor cell transplantation; format: functional; conditions: time 3 day
HCT-116 [22] = assay: Antitumour activity against human HCT-116 cells xenografted in Crl:Nu-Foxnl nu mouse assessed as inhibition of tumour growth at total effective dose of 5 mg/kg, ip measured on day 16; format: functional; conditions: HCT-116, ip, 384 h, time 16 day, read-out: TGI
DU-145 [23] = assay: Antitumour activity against human DU-145 cells xenografted in Crl:Nu-Foxnl nu mouse assessed as inhibition of tumour growth at total effective dose of 24 mg/kg, ip measured on day 35; format: functional; conditions: DU-145, ip, 840 h, time 35 day, read-out: TGI

Compound | pIC50 (MIA PaCa-2 [2]) | pIC50 (DU-145 [3]) | pIC50 (PANC-1) | pIC50 (NCI-H460 [4]) | pIC50 (HCT-116 [5]) | pIC50 (HT-29 [8]) | pIC50 (LNCaP) | other results
Cc1ccc(NCCCNCCCNc2c3ccccc3nc3cccc([N+](=O)[O-])c23)c2c(=O)c3ccccc3[nH]c12 | 6.55 | 6.74 | 6.42 |  |  |  |  | T/C (W256 [1]): 300%; pIC50 (MCF7): 6.64
O=c1c2cc(O)ccc2[nH]c2c([N+](=O)[O-])ccc(NCCCN3CCN(CCCNc4c5ccccc5nc5cccc([N+](=O)[O-])c45)CC3)c12 | 7.92 | 7.70 | 7.37 | 7.70 | 7.96 | 7.42 | 6.93 | T/C (W256 [6]): 300%; pIC50 (MDA-MB-231): 7.92; ΔTm (Quadruplex DNA [7]): 26.6 °C; inhibition in vivo at 24 mg/kg (HT-29 [9]): 39%; ΔTm (Quadruplex DNA [10]): 32.6 °C; pIC50 (PC-3): 7.51; ΔTm (Quadruplex DNA [11]): 16 °C; pIC50 (ASPC1): 6.68; inhibition in vivo at 30 mg/kg (NCI-H460 [12]): 24%; pIC50 (MCF7): 7.21; ΔTm [13]: 3.3 °C; inhibition in vivo at 24 mg/kg (HT-29 [14]): 25%; pIC50 (UMUC3): 7.48
Cc1ccc([N+](=O)[O-])c2c(NCCCN(C)CCCNc3ccc(C)c4[nH]c5ccccc5c(=O)c34)c3ccccc3nc12 |  | 6.72 |  | 7.15 | 6.92 | 6.91 | 6.71 | T/C (W256 [15]): 1300%
CCc1c2c(nc3ccc(OC(=O)N4CCC(N5CCCCC5)CC4)cc13)-c1cc3c(c(=O)n1C2)COC(=O)[C@]3(O)CC [IRINOTECAN] |  |  |  |  | 5.01 | 5.02 |  | 
Cc1ccc([N+](=O)[O-])c2c(NCCCN3CCN(CCCNc4ccc([N+](=O)[O-])c5[nH]c6ccc(O)cc6c(=O)c45)CC3)c3ccccc3nc12 |  | 7.21 |  | 7.33 |  | 6.63 | 5.39 | T/C (W256 [16]): 250%
Cc1ccc([N+](=O)[O-])c2c(NCCNc3ccc(C)c4[nH]c5ccccc5c(=O)c34)c3ccccc3nc12 |  | 6.38 |  | 6.43 | 5.90 | 5.93 |  | T/C (W256 [15]): 750%
Cc1ccc([N+](=O)[O-])c2c(NCCCN(C)CCCNc3ccc([N+](=O)[O-])c4[nH]c5ccc(O)cc5c(=O)c34)c3ccccc3nc12 |  | 7.14 |  | 7.34 |  | 6.70 | 6.42 | T/C (W256 [16]): 400%
Cc1ccc([N+](=O)[O-])c2c(NCCCNCCCNc3ccc([N+](=O)[O-])c4[nH]c5ccc(O)cc5c(=O)c34)c3ccccc3nc12 |  | 7.11 |  | 7.14 | 7.06 | 6.89 | 6.91 | T/C (W256 [17]): 1500%
O=c1c2ccccc2[nH]c2c([N+](=O)[O-])ccc(NCCCNCCNCCCNc3c4ccccc4nc4cccc([N+](=O)[O-])c34)c12 | 7.34 | 7.26 | 7.22 |  |  |  |  | T/C (W256 [1]): 250%
Cc1ccc([N+](=O)[O-])c2c(NCCNCCNc3ccc(C)c4[nH]c5ccccc5c(=O)c34)c3ccccc3nc12 |  | 6.22 |  |  |  | 6.38 | 6.60 | T/C (W256 [18]): 250%
NC(CCN1CCN(CCCNc2ccc3nnn4c5ccc(O)cc5c(=O)c2c34)CC1)c1ccc2nc3ccccc3cc2c1[N+](=O)[O-] (stereo not given) | 7.77 | 7.77 | 7.44 |  |  |  |  | pIC50 (MDA-MB-231): 7.54; ΔTm (Quadruplex DNA [7]): 36.5 °C; ΔTm (Quadruplex DNA [10]): 37.5 °C; ΔTm (Quadruplex DNA [11]): 27.5 °C; pIC50 (ASPC1): 6.86; ΔTm [13]: 5.9 °C
CN(CCCNc1c2ccccc2nc2cccc([N+](=O)[O-])c12)CCCNc1ccc([N+](=O)[O-])c2[nH]c3ccc(O)cc3c(=O)c12 | 7.62 | 7.37 | 7.49 | 7.85 | 7.82 | 7.66 | 7.28 | inhibition in vivo at 6 mg/kg (DU-145 [19]): 60%; pIC50 (MDA-MB-231): 7.70; ΔTm (Quadruplex DNA [7]): 29.7 °C; inhibition in vivo at 32 mg/kg (MIA PaCa-2 [20]): 30%; T/C (W256 [21]): 350%; ΔTm (Quadruplex DNA [10]): 26.3 °C; pIC50 (PC-3): 7.28; inhibition in vivo at 5 mg/kg (HCT-116 [22]): 32%; ΔTm (Quadruplex DNA [11]): 34 °C; pIC50 (ASPC1): 6.87; pIC50 (MCF7): 7.13; inhibition in vivo at 24 mg/kg (DU-145 [23]): 52%; pIC50 (UMUC3): 7.85
Nc1ccn([C@@H]2O[C@H](CO)[C@@H](O)C2(F)F)c(=O)n1 [GEMCITABINE] |  |  | 7.66 |  |  |  |  | 
Cc1ccc([N+](=O)[O-])c2c(NCCCNCCNCCCNc3ccc([N+](=O)[O-])c4[nH]c5ccccc5c(=O)c34)c3ccccc3nc12 | 6.96 | 7.06 | 6.85 |  |  |  |  | T/C (W256 [15]): 350%
Cc1ccc(NCCCN(C)CCCNc2c3ccccc3nc3cccc([N+](=O)[O-])c23)c2c(=O)c3ccccc3[nH]c12 |  | 7.60 | 7.40 |  |  | 7.31 |  | pIC50 (MDA-MB-231): 7.41
